Test results: US20110045593A1, “Transgenically mitigating the establishment and spread of transgenic algae in natural ecosystems by suppressing the activity of carbonic anhydrase” (priority 2009, published 2011)

Experiments:
[1] = tested on: Nannochloropsis oculata CS-179; assay: Photosynthetic carbon dioxide fixation measured as oxygen evolution with an oxygen electrode, carbonic anhydrase suppressed by inhibitor; assay type: cell-based; conditions: 300 μM, incubated just prior to measurement
Procedure: Cultures were incubated with ethoxyzolamide just prior to measurement.
Measurements of O2 concentrations are performed using a Clark type O2 electrode (Pasco Scientific, Roseville, Calif., USA). 20 ml of cell suspension corresponding to 15 μg chlorophyll/ml are placed in the O2 electrode chamber, at relevant temperature. Cells are exposed to various light intensities and net O2 production is measured. Dark incubations are performed in air-tight vessels to follow light-independent O2 consumption.

[2] = tested on: non-transgenic algal or cyanobacterial cells; assay: In vivo pds assay: culture in fluorochloridone solution; assay type: cell-based; conditions: 0.1 μM in standard algae or cyanobacteria culture media
Procedure: In vivo pds assay. Putative transformed algal or cyanobacterial cells were cultured in a solution of 0.1 μM fluorochloridone in standard algae or cyanobacteria culture media.

Row | Compound | photosynthetic carbon dioxide fixation (measured as oxygen evolution) ([1]; high CO2 concentration (FIG. 1A; more than 2%)) | photosynthetic carbon dioxide fixation (measured as oxygen evolution) ([1]; high CO2 concentration (FIG. 1A; more than 2%), listed as inhibitor) | photosynthetic carbon dioxide fixation (measured as oxygen evolution) ([1]; low CO2 concentration (FIG. 1B)) | photosynthetic carbon dioxide fixation (measured as oxygen evolution) ([1]; low CO2 concentration (FIG. 1B), listed as inhibitor) | killing of non-transgenic cells [2]
1 | CCOc1ccc2nc(S(N)(=O)=O)sc2c1 [ethoxyzolamide, 6-ethoxy-2-benzothiazolesulfonamide] | no effect | no difference in photosynthesis | decreases photosynthetic carbon dioxide fixation | severely deficient in photosynthesis | 
2 | O=C1C(Cl)C(CCl)CN1c1cccc(C(F)(F)F)c1 (centres unmarked) [fluorochloridone] |  |  |  |  | all non-transgenic cells are killed
